From PMC12756865, “Inhibitory effect of oestradiol on the cardiac KV7.1/KCNE1 channel is species dependent” (Experimental Physiology, 2025)
pEC50: −log10 of the molar value.

What was measured:
Format in all cases: cell-based
[1] = biological target: T1, human KV7.1/KCNE1 (tested as KV7.1/KCNE1_K69Q) (Homo sapiens, UniProt P15382+P51787, P15382:K69Q); test: two-electrode voltage clamp, Xenopus oocytes, reduction of Gmax
T1 construct: gene KCNQ1; KV7.1 and KCNE1 cRNAs co-injected in Xenopus laevis oocytes; KCNE1 in excess; four KV7.1 with one to four KCNE1

rabbit KV7.1/human KCNE1 = biological target: T2, rabbit KV7.1/human KCNE1 (Oryctolagus cuniculus; Homo sapiens, UniProt P15382+Q9MYS6); test: two-electrode voltage clamp, Xenopus oocytes, change of Gmax; details: 10 µM; inhibition; EC50 fit ambiguous; pH 7.4, about 20 °C; ethanol vehicle
T2 construct: gene KCNQ1; cross-species complex of two intact wild-type subunits (no fusion): rabbit KV7.1 and human KCNE1 cRNAs co-injected in Xenopus laevis oocytes
Description: two-electrode voltage clamp, Xenopus oocytes, change of Gmax on rabbit KV7.1/human KCNE1

guinea pig KV7.1/KCNE1 = biological target: T3, guinea pig KV7.1/KCNE1 (Cavia porcellus, UniProt A6Y9U2+Q60409); test: as above; details: 3 µM; inhibition; EC50 fit ambiguous; pH 7.4, about 20 °C; ethanol vehicle
T3 construct: gene KCNQ1; wild-type KV7.1 and KCNE1 cRNAs co-injected in Xenopus laevis oocytes; KCNE1 in excess; four KV7.1 with one to four KCNE1
Description: two-electrode voltage clamp, Xenopus oocytes, change of Gmax on guinea pig KV7.1/KCNE1

human KV7.1/rabbit KCNE1 = biological target: T4, human KV7.1/rabbit KCNE1 (Homo sapiens; Oryctolagus cuniculus, UniProt P51787+Q28705); test: as above; details: 10 µM; inhibition; EC50 fit ambiguous; pH 7.4, about 20 °C; ethanol vehicle
T4 construct: gene KCNQ1; cross-species complex of two intact wild-type subunits (no fusion): human KV7.1 and rabbit KCNE1 cRNAs co-injected in Xenopus laevis oocytes
Description: two-electrode voltage clamp, Xenopus oocytes, change of Gmax on human KV7.1/rabbit KCNE1

rabbit KV7.1/KCNE1 = biological target: T5, rabbit KV7.1/KCNE1 (Oryctolagus cuniculus, UniProt Q28705+Q9MYS6); test: two-electrode voltage clamp, Xenopus oocytes, reduction of Gmax
T5 construct: gene KCNQ1; wild-type KV7.1 and KCNE1 cRNAs co-injected in Xenopus laevis oocytes; KCNE1 in excess; four KV7.1 with one to four KCNE1
T5 sequence (Q9MYS6 whole entry): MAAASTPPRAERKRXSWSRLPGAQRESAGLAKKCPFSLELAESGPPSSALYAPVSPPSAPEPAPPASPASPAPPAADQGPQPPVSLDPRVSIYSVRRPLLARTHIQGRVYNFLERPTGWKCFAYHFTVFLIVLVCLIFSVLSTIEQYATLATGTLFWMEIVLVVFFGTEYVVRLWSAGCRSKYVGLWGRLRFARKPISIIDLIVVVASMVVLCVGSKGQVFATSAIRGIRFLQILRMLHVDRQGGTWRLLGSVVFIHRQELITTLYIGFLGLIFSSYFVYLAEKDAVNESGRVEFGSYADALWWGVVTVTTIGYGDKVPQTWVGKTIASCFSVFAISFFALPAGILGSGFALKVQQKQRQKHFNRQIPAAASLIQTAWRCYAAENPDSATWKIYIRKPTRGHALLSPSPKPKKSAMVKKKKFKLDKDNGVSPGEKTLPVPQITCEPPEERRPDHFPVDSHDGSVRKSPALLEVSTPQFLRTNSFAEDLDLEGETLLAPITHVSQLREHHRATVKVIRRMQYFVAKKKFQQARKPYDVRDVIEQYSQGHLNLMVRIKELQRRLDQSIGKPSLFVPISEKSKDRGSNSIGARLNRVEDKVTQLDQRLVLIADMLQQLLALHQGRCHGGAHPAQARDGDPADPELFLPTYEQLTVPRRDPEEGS
T5 sequence (Q28705 whole entry): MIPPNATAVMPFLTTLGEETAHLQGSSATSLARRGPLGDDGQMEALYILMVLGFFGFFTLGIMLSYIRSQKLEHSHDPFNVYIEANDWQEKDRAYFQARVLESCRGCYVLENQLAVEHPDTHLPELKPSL

T2 sequence (Q9MYS6 whole entry, the tested form may be a part): as the sequence (Q9MYS6 whole entry) above
T1 sequence (P51787 whole entry): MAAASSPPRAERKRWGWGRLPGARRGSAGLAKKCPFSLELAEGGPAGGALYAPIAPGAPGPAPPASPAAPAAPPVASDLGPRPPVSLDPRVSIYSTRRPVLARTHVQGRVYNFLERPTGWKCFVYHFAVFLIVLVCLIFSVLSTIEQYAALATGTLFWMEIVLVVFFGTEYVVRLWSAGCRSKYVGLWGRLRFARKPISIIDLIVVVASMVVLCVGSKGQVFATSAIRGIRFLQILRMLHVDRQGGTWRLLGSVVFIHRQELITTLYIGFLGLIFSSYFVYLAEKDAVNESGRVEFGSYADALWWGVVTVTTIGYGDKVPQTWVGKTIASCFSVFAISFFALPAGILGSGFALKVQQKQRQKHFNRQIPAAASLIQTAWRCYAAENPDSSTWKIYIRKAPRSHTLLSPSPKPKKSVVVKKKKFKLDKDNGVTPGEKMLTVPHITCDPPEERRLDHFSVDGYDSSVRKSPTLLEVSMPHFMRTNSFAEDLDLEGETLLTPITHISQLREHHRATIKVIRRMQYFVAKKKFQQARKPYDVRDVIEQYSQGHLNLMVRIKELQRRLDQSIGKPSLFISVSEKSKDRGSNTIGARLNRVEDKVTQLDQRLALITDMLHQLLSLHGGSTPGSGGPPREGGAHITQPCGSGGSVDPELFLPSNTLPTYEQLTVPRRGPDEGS
T4 sequence (P51787 whole entry, the tested form may be a part): as the sequence (P51787 whole entry) above
T4 sequence (Q28705 whole entry, the tested form may be a part): as the sequence (Q28705 whole entry) above

**Q.** `C[C@]12CC[C@@H]3c4ccc(O)cc4CC[C@H]3[C@@H]1CC[C@@H]2O` [17β‐E2] was tested. Which pEC50 [1] did it give?
**A.** 5.54

**Q.** And the ΔG max (rabbit KV7.1/human KCNE1)?
**A.** −91.9 ± 3.0 (SEM) %

**Q.** What about the ΔG max (guinea pig KV7.1/KCNE1) of the same compound?
**A.** −37.8 ± 3.7 (SEM) %

**Q.** And the ΔG max (human KV7.1/rabbit KCNE1)?
**A.** −77.8 ± 6.2 (SEM) %

**Q.** What about the pEC50 (rabbit KV7.1/KCNE1) of the same compound?
**A.** 6.64
